Patent US20180228799A1, “Treatment for Neurological and Mental Disorders” (PSYCHOGENICS, INC., priority 2008, published 2018)

System: rats
Assay: Radial arm maze, scopolamine-induced working memory deficit
Type: in vivo
Details: scopolamine 0.5 mg/kg IP, FIG. 2
Method: Several mazes, such as the radial arm maze (RAM) have been adapted to assess working memory in rodents. The RAM consists of eight long runways radiating out in a circle from a central compartment. In the RAM rats learn to retrieve food rewards from all or a sub-set of the arms. Working memory is assessed by measuring entries into previously baited arms within a given trial. […] Hippocampal lesions produce deficits both in adults and in the neonatal hippocampal lesion model of schizophrenia.
For training, food deprived rats were placed in an enclosed cylinder in the center of the maze for 20 s, prior to being allowed to explore the maze by removing the cylinder. Each radial arm is baited with a food reward. Animals were given a maximum of 5 minutes to retrieve all food rewards. This training continued once daily for three weeks until animals met the performance criteria for successful acquisition of the task.
Four parameters were recorded to assess the performance of the rat: (1) the number of errors, which is defined as entering an arm that had already been entered, (2) the number of consecutive entries into un-visited arms before the first error occurred (entries to repeat), (3) latency to complete the task, and (4) the total number of arm entries before all food in the eight arms is collected or the maximum session duration is reached. […]

CN1[C@@H]2C[C@@H](OC(=O)[C@H](CO)c3ccccc3)C[C@H]1[C@@H]1O[C@@H]12 [scopolamine, reference compound] was tested, and the “Entries to repeat in the radial arm maze compared to baseline” value was “decreased entries to repeat”.
